Structures are written as SMILES.

This passage reports Dmax and DC50 results from patent US20240131168A1, “NAPHTHALENE RING-CONTAINING COMPOUND, PHARMACEUTICAL COMPOSITION CONTAINING SAME, AND USE THEREOF” (JIANGSU YAHONG MEDITECH CO., LTD., priority 2021, published 2024).

For this assay, the target named is T1, ERα (Homo sapiens, UniProt P03372).
T1 construct: MCF-7 (ATCC; Cat. No.: HTB-22), a Luminal A breast cancer cell; culture medium EMEM; host or cells: MCF-7
T1 sequence (P03372 1-595): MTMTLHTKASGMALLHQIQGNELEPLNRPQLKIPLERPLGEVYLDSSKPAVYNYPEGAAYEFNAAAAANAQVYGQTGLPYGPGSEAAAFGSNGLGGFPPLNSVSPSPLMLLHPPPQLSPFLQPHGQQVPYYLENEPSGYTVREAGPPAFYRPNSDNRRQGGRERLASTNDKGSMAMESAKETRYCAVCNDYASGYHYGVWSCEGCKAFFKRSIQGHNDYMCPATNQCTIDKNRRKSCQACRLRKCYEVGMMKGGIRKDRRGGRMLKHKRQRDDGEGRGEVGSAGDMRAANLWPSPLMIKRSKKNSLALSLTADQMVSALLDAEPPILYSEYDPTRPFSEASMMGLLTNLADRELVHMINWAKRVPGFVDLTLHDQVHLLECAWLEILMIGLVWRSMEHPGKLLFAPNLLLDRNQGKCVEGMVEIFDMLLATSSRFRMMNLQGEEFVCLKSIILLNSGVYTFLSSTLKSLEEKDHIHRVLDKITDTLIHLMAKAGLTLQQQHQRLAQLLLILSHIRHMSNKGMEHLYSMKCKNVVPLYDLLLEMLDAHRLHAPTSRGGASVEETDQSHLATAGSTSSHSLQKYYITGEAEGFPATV
Kind of assay: iELISA of ER degradation in MCF-7 cells (Effect Example 1). The class given is cell-based. To be noted: MCF-7 iELISA, processing time 4 hours, starting concentration 1 μM; for Dmax: MCF7; for DC50: read-out: DC50 (drug concentration corresponding to 50% protein degradation). The text has this:
1. Cell Line • Breast cancer cell line and its culture medium: • MCF-7 (ATCC; Cat. No.: HTB-22), a Luminal A breast cancer cell; culture medium EMEM.
2. Reagents • Culture medium EMEM (Gibco, 1964507) • Fetal bovine serum (Gibco, 10091148) • Penicillin-streptomycin double antibody (Gibco, S110JV) • DPBS (Gibco, 14190-144) • CellTiter-Glo® assay kit (Promega, G7573) • Trypsin (0.25%) (Gibco, 25200-056) • DMSO (Sigma, D2650)
3. Instruments • Biosafety cabinet (AIRTECH, BSC-1300A II) • Automated cell counter (Life Technologies, countess II) • Multifunctional microplate reader (Biotek, H1FM) • Orbital shaker (Hangzhou Allsheng Instruments Co., Ltd., OS-100) • XLFIT 5.3 (Inforstack Shanghai Co., Ltd.)
For this test method, the following experiments were performed in a biosafety cabinet, with the specific steps as follows: • (1) On the first day, cells were inoculated in a 96-well plate, the previous culture medium was poured off, 5 mL of DPBS was added to wash the cells, and then DPBS was pipetted and discarded. 1 mL of trypsin (0.25%) was then added. The plate was digested in a 37° C., 5% CO2 cell incubator for about 2 to 5 minutes and then taken out. A new corresponding culture medium was added, and pipetted up and down to resuspend the cells evenly. The cells were then counted using an automated cell counter. • (2) Each cell was inoculated in columns 1 to 12 of a 96-well plate (Corning, Cat. No.: 356690) at a density of 30,000 cells per well in 100 μL of culture medium. The plate was then placed in a 37° C., 5% CO2 incubator for 24 hours. • (3) On the second day, the compound of the present disclosure was 4-fold serially diluted to 10 dose points starting at 1 μM. 10 μL of the serially diluted compound was pipetted and added to 100 μL of cells in columns 1 to 10, and 10 μL of the corresponding culture medium containing 0.33 v % DMSO was added to both columns 11 and 12. The plate was incubated in a 37° C., 5% CO2 incubator for 4 hours (Note: column 11 was used as a MIN well without compound and primary antibody but with secondary antibody; column 12 was used as a MAX well without compound but with primary antibody and secondary antibody). • (4) The culture medium was then removed. The cells were washed once with 100 µL of DPBS, and fixed with 100 μL of 1 v % formaldehyde (CST; Cat. No.: 12606) fixative at room temperature for 30 minutes. • (5) The fixative was removed. The cells were washed once with 100 μL of DPBS, and permeabilized with 100 μL of 80 v % pre-cooled methanol (Jiazu-chemical; Cat. No.: 67-56-1) at 4° C. for 15 minutes. • (6) Methanol was removed, and the cells were washed once with 100 μL of DPBS. The plate was added with 100 μL of primary antibody (1:5000, a volume ratio of primary antibody to BSA; manufacturer of primary antibody: Invitrogen, Cat. No.: MA5-14501), and incubated at 4° C. overnight. • (7) Primary antibody was removed, and the cells were washed three times with […] of DPBS. The plate was added with 100 μL of secondary antibody (1:2500, a volume ratio of secondary antibody to BSA; manufacturer of secondary antibody: Univ, Cat. No.: abs20002), and incubated at room temperature for 1 hour. • (8) Secondary antibody was removed, and the cells were washed three times with […] of DPBS. The plate was added with 100 μL of tetramethylbenzidine (TMB) (CST; Cat. No.: 7004), and incubated at room temperature for 1 hour. • (9) The plate was added with 100 μL of stop buffer (CST; Cat. No.: 7002), and incubated at room temperature for 10 minutes. The OD450 signal value was detected with a multifunctional microplate reader, and finally, the degradation effect of the compound of the present disclosure on ER was plotted by XLFIT software, and the DC50 value of the compound of the present disclosure (drug concentration corresponding to 50% protein degradation) was calculated; Dmax=[(the highest level of ERα−the lowest level of ERα)/(the highest level of ERα)].

The Dmax is the greatest extent of degradation seen. A low value points to shallow degradation. On to `C[C@@H]1CN(CCOCC(=O)N2CCN(c3ccc4c(c3)C(=O)N(C3CCC(=O)NC3=O)C4=O)CC2)[C@@H](C)CN1CCOc1ccc(Oc2c(-c3ccc(S(C)(=O)=O)cc3)ccc3cc(O)ccc23)cc1` (stereo partly drawn) [Compound D15, 2-(2,6-dioxopiperidin-3-yl)-5-(4-(2-(2-((2S,5R)-4-(2-(4-((6-hydroxy-2-(4-(methylsulfonyl)phenyl)naphthalen-1-yl)oxy)phenoxy)ethyl)-2,5-dimethylpiperazin-1-yl)ethoxy)acetyl)piperazin-1-yl)isoindoline-1,3-dione], for which the Dmax was determined as 60% and the DC50 amounted to 7.6 nM.

`CS(=O)(=O)c1ccc(-c2ccc3cc(O)ccc3c2Oc2ccc(OCCOCCOCCOCCOc3ccc4c(c3)C(=O)N(C3CCC(=O)NC3=O)C4)cc2)cc1` (centres unmarked) [Compound D35, 3-(6-(2-(2-(2-(2-(4-((6-hydroxy-2-(4-(methylsulfonyl)phenyl)naphthalen-1-yl)oxy)phenoxy)ethoxy)ethoxy)ethoxy)ethoxy)-1-oxoisoindolin-2-yl)piperidine-2,6-dione] had a Dmax of 32%.

The compound `CS(=O)(=O)c1ccc(-c2ccc3cc(O)ccc3c2Oc2ccc(OCCOCCOCCOCCN3CCN(c4ccc5c(c4)C(=O)N(C4CCC(=O)NC4=O)C5=O)CC3)cc2)cc1` (centres unmarked) [Compound D19] came in with a Dmax of 47%. As to `C[C@@H]1CN(CCOc2ccc(Oc3c(-c4ccc(S(C)(=O)=O)cc4)ccc4cc(O)ccc34)cc2)[C@@H](C)CN1CCOCC(=O)N1CCN(c2ccc3c(c2)CN(C2CCC(=O)NC2=O)C3=O)CC1` (stereo partly drawn) [Compound D9, 3-(5-(4-(2-(2-((2R,5S)-4-(2-(4-((6-hydroxy-2-(4-(methylsulfonyl)phenyl)naphthalen-1-yl)oxy)phenoxy)ethyl)-2,5-dimethylpiperazin-1-yl)ethoxy)acetyl)piperazin-1-yl)-1-oxoisoindolin-2-yl)piperidine-2,6-dione], the Dmax came out at 48%. Compound `CCN(CCOCCOCCN1CCN(c2ccc3c(c2)C(=O)N(C2CCC(=O)NC2=O)C3=O)CC1)CCOc1ccc(Oc2c(-c3ccc(S(C)(=O)=O)cc3)ccc3cc(O)ccc23)cc1` (centres unmarked) [Compound D28, 2-(2,6-dioxopiperidin-3-yl)-5-(4-(2-(2-(2-(ethyl(2-(4-((6-hydroxy-2-(4-(methylsulfonyl)phenyl)naphthalen-1-yl)oxy)phenoxy)ethyl)amino)ethoxy)ethoxy)ethyl)piperazin-1-yl)isoindoline-1,3-dione] gave a Dmax of 34%. For `CS(=O)(=O)c1ccc(-c2ccc3cc(O)ccc3c2Oc2ccc(OCCOCCOCCOCCN3CCN(c4ccc5c(c4)C(=O)N(C4CCC(=O)NC4=O)C5)CC3)cc2)cc1` (centres unmarked) [Compound D21], the Dmax came out at 69% and the DC50 was 7.5 nM. `CCN(CCCCCN(C)CC(=O)N1CCN(c2ccc3c(c2)C(=O)N(C2CCC(=O)NC2=O)C3=O)CC1)CCOc1ccc(Oc2c(-c3ccc(S(C)(=O)=O)cc3)ccc3cc(O)ccc23)cc1` (centres unmarked) [Compound D31, 2-(2,6-dioxopiperidin-3-yl)-5-(4-(N-(5-(ethyl(2-(4-((6-hydroxy-2-(4-(methylsulfonyl))phenyl)naphthalen-1-yl)oxy)phenoxy)ethyl)aminopentyl)-N-methylglycyl)piperazin-1-yl)isoindoline-1,3-dione] yielded a Dmax of 35%. Take `CS(=O)(=O)c1ccc(-c2ccc3cc(O)ccc3c2Oc2ccc(OCCCCN3CCN(c4ccc5c(c4)CN(C4CCC(=O)NC4=O)C5=O)CC3)cc2)cc1` (centres unmarked) [Compound D59, 3-(5-(4-(4-(4-((6-hydroxy-2-(4-(methylsulfonyl)phenyl)naphthalen-1-yl)oxy)phenoxy)butyl)piperazin-1-yl)-1-oxoisoindolin-2-yl)piperidine-2,6-dione]: the Dmax came to 67% and the DC50 was determined as 0.5 nM. Compound `CS(=O)(=O)c1ccc(-c2ccc3cc(O)ccc3c2Oc2ccc(N3CCN(CCCCCOCC(=O)N4CCN(c5ccc6c(c5)CN(C5CCC(=O)NC5=O)C6=O)CC4)CC3)cc2)cc1` (centres unmarked) [Compound D11, 3-(5-(4-(2-((5-(4-(4-((6-hydroxy-2-(4-(methylsulfonyl)phenyl)naphthalen-1-yl)oxy)phenyl)piperazin-1-yl)pentyl)oxy)acetyl)piperazin-1-yl)-1-oxoisoindolin-2-yl)piperidine-2,6-dione] displayed a Dmax of 40%. The same measure, in the same setting: in the case of `CCN(CCOc1ccc(Oc2c(-c3ccc(S(C)(=O)=O)cc3)ccc3cc(O)ccc23)cc1)CC(=O)N1CCN(c2ccc3c(c2)C(=O)N(C2CCC(=O)NC2=O)C3=O)CC1` (centres unmarked) [Compound D8, 2-(2,6-dioxopiperidin-3-yl)-5-(4-(N-ethyl-N-(2-(4-((6-hydroxy-2-(4-(methylsulfonyl)phenyl)naphthalen-1-yl)oxy)phenoxy)ethyl)glycyl)piperazin-1-yl)isoindoline-1,3-dione] it was 43%. Regarding `CS(=O)(=O)c1ccc(-c2ccc3cc(O)ccc3c2Oc2ccc(OCCOCCOCCN3CCN(c4ccc5c(c4)C(=O)N(C4CCC(=O)NC4=O)C5)CC3)cc2)cc1` (centres unmarked) [Compound D22, 3-(6-(4-(2-(2-(2-(4-((6-hydroxy-2-(4-(methylsulfonyl)phenyl)naphthalen-1-yl)oxy)phenoxy)ethoxy)ethoxy)ethyl)piperazin-1-yl)-1-oxoisoindolin-2-yl)piperidine-2,6-dione], the Dmax amounted to 54% and the DC50 is 4.9 nM. As to `CS(=O)(=O)c1ccc(-c2ccc3cc(O)ccc3c2Oc2ccc(OCCOCCOCCN3CCN(c4ccc5c(c4)CN(C4CCC(=O)NC4=O)C5=O)CC3)cc2)cc1` (centres unmarked) [Compound D30], the Dmax is 35%. On the same count and under the same terms, in the case of `CCN(CCOc1ccc(Oc2c(-c3ccc(S(C)(=O)=O)cc3)ccc3cc(O)ccc23)cc1)C(=O)c1ccc(CCC2CCN(C3CCN(c4ccc5c(c4)C(=O)N(C4CCC(=O)NC4=O)C5=O)CC3)CC2)cc1` (centres unmarked) [Compound D34, 4-(2-(1′-(2-(2,6-dioxopiperidin-3-yl)-1,3-dioxoisoindolin-5-yl)-[1,4′-bipiperidin]-4-yl)ethyl)-N-ethyl-N-(2-(4-((6-hydroxy-2-(4-(methylsulfonyl)phenyl)naphthalen-1-yl)oxy)phenoxy)ethyl)benzamide] it was 45%.
